Measured values: patent US20100009907A1, “Glucagon-Like Peptides and Uses Thereof” (AMYLIN PHARMACEUTICALS, INC., priority 2006, published 2010)
Where no end group is shown, it is not given here.

T1: GLP-1 receptor (RINm5F cell membranes) (Rattus norvegicus, UniProt P32301)
T1 construct: RINm5F insulinoma cells expressing endogenous GLP-1 receptors; endogenous in cells; host or cells: RINm5F cell membranes
T1 sequence (P32301 22-463): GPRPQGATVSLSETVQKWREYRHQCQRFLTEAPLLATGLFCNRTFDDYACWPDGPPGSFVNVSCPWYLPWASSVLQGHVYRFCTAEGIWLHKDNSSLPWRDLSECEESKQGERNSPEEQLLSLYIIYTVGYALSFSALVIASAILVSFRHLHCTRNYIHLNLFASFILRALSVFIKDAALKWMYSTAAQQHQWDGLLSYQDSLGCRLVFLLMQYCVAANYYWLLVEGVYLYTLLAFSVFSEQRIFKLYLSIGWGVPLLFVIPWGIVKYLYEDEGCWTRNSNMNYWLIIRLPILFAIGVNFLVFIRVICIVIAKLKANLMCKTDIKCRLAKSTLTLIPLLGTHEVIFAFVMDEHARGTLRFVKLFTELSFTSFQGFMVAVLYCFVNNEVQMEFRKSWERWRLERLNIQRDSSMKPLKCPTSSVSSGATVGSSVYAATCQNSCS

T2: RINm5f cells expressing endogenous GLP-1, calcitonin, and GIP receptors (Rattus norvegicus, UniProt P32301)
T2 construct: RINm5f cells expressing endogenous GLP-1, calcitonin, and GIP receptors; endogenous in cells; host or cells: RINm5f cells
T2 sequence (P32301 22-463): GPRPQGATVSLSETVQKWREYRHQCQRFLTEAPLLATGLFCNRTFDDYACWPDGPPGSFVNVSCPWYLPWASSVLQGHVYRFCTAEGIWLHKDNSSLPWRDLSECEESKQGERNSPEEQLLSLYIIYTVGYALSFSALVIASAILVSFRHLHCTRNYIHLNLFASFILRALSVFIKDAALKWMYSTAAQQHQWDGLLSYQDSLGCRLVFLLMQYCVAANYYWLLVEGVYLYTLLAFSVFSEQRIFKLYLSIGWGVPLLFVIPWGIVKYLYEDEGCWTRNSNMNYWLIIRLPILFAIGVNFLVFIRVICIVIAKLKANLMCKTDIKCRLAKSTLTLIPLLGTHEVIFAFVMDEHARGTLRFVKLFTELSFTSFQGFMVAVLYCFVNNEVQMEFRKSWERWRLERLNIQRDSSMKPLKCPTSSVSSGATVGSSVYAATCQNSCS

T3: GLP-1 receptor (endogenous, RINm5F cell membranes; rat thyroid carcinoma 6-23 clone 6 cells) (rat, UniProt P32301 22-463)
T3 sequence (looked up): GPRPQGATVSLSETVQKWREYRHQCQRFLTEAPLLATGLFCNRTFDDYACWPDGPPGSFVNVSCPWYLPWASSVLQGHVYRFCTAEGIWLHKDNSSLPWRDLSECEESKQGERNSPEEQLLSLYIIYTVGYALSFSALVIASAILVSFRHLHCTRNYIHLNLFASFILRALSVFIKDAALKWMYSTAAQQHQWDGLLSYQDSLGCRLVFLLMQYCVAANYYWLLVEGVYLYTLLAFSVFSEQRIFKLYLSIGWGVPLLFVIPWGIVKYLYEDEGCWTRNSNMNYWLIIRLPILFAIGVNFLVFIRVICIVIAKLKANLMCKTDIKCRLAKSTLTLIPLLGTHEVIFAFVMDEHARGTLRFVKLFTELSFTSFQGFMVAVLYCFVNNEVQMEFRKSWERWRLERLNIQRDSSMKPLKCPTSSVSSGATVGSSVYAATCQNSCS


What was measured:
[1] = target: T1, GLP-1 receptor (RINm5F cell membranes); test: GLP-1 receptor binding assay (GLP RBA), [125I]GLP-1 displacement; settings: [125I]GLP-1 tracer
Protocol: Reaction mixtures are filtered through glass filter pads presoaked with 0.3% PEI solution and rinsed with ice-cold phosphate buffered saline. Bound counts are determined using a scintillation counter. Binding affinities are calculated using GraphPad Prism software (GraphPad Software, Inc., San Diego, Calif.).

[2] = target: T2, RINm5f cells expressing endogenous GLP-1, calcitonin, and GIP receptors; test: GLP/GIP/CT cAMP (RIN) assay; assay type: cell-based
Protocol: In addition, receptor binding can be measured using cells prepared from confluent cultures of RINm5f cells expressing endogenous GLP-1, calcitonin, and GIP receptors. Cells, and peptide or buffer solution are combined in 384-well plates. After a 30-minute incubation at room temperature in air, cAMP content is measured as recommended in the Perkin-Elmer AlphaScreen kit instructions.
Cells, and peptide or buffer solutions are combined in 384-well plates and incubated at room temperature in air for 30-minutes. cAMP content can then be measured according to recommendations in the Perkin-Elmer AlphaScreen™ kit instructions using the Perkin Elmer Fusion fluorimeter and data are analyzed using XLfit software (IDBS).

[3] = target: T3, GLP-1 receptor (endogenous, RINm5F cell …); test: cell-based or functional assay
[4] = target: T3, GLP-1 receptor (endogenous, RINm5F cell …); test: displacement of [125I]GLP-1 from RINm5F cell membranes (GLP RBA)
Protocol: GLP-1 receptor binding activity and affinity can be measured using a binding displacement assay in which the receptor source is RINm5F cell membranes, and the ligand is [¹²⁵I]GLP-1. Homogenized RINm5F cell membranes are incubated in 20 mM HEPES buffer with 40,000 cpm [¹²⁵I]GLP-1 tracer, and varying concentrations of test compound for 60 minutes at 23° C. with constant mixing. Reaction mixtures are filtered through glass filter pads presoaked with 0.3% PEI solution and rinsed with ice-cold phosphate buffered saline. Bound counts are determined using a scintillation counter. Binding affinities are calculated using GraphPad Prism software (GraphPad Software, Inc., San Diego, Calif.).

Molecule	IC50 [1] [nM]	GLP/GIP/CT cAMP(RIN) EC50 [2] [nM]	also measured
HAEGTFTSDVTQQLDEKAAKEFIDALINGGPSKEIIS-NH2 (C-terminus assumed) [compound 13]	74	196	
HADGTYTSDVSSYLQDQAAKDFITWLKSGQPKPDAVETRSVDTL-NH2 [compound 49]		415	
HGEGTYTNDVTQFLEEKAAKEFIDWLIKGKPKKQRLS-NH2 (C-terminus assumed) [compound 55]		0.576	
HAEGTYTNDVTEYLEEKAAKEFIEWLIPKKIRYS-NH2 (C-terminus assumed) [compound 32]	22		
CC[C@H](C)[C@H](NC(=O)[C@H](CC(C)C)NC(=O)[C@H](Cc1c[nH]c2ccccc12)NC(=O)[C@H](CC(=O)O)NC(=O)[C@@H](NC(=O)[C@H](Cc1ccccc1)NC(=O)[C@H](CCC(=O)O)NC(=O)[C@H](CCCCN)NC(=O)[C@H](C)NC(=O)[C@H](C)NC(=O)[C@H](CCCCN)NC(=O)[C@H](CCC(=O)O)NC(=O)[C@H](CC(=O)O)NC(=O)[C@H](CC(C)C)NC(=O)[C@H](CCC(N)=O)NC(=O)[C@H](CCC(N)=O)NC(=O)[C@@H](NC(=O)[C@@H](NC(=O)[C@H](CC(=O)O)NC(=O)[C@H](CO)NC(=O)[C@@H](NC(=O)[C@H](Cc1ccccc1)NC(=O)[C@@H](NC(=O)CNC(=O)[C@H](CCC(=O)O)NC(=O)[C@H](C)NC(=O)[C@@H](N)Cc1c[nH]cn1)[C@@H](C)O)[C@@H](C)O)C(C)C)[C@@H](C)O)[C@@H](C)CC)C(=O)N[C@@H](CC(N)=O)C(=O)NCC(=O)NCC(=O)N1CCC[C@H]1C(=O)N[C@@H](CO)C(=O)N[C@@H](CCCCN)C(=O)N[C@@H](CCC(=O)O)C(=O)N[C@H](C(=O)N[C@H](C(=O)N[C@@H](CO)C(N)=O)[C@@H](C)CC)[C@@H](C)CC [compound 11]		0.59	
HADGTFTNDMTSYLDAKAARDFVSWLARSDKS-NH2 [compound 52]		382	
HGEGTYTNDVTEYLEEKAAKEFIEWLIKGKPKKIRYS-NH2 (C-terminus assumed) [compound 26]	0.11	0.967	
CC[C@H](C)[C@H](NC(=O)[C@H](CC(C)C)NC(=O)[C@H](Cc1c[nH]c2ccccc12)NC(=O)[C@H](CC(=O)O)NC(=O)[C@@H](NC(=O)[C@H](Cc1ccccc1)NC(=O)[C@H](CCC(=O)O)NC(=O)[C@H](CCCCN)NC(=O)[C@H](C)NC(=O)[C@H](C)NC(=O)[C@H](CCCCN)NC(=O)[C@H](CCC(=O)O)NC(=O)[C@H](CC(=O)O)NC(=O)[C@H](CC(C)C)NC(=O)[C@H](CCC(N)=O)NC(=O)[C@H](CCC(N)=O)NC(=O)[C@@H](NC(=O)[C@@H](NC(=O)[C@H](CC(=O)O)NC(=O)[C@H](CO)NC(=O)[C@@H](NC(=O)[C@H](Cc1ccccc1)NC(=O)[C@@H](NC(=O)CNC(=O)[C@H](CCC(=O)O)NC(=O)[C@H](C)NC(=O)[C@@H](N)Cc1c[nH]cn1)[C@@H](C)O)[C@@H](C)O)C(C)C)[C@@H](C)O)[C@@H](C)CC)C(=O)N[C@@H](CC(N)=O)C(N)=O [compound 7]	3	4.7	
YADAPYISDVYSYLQDQVAKKWLKSGQD-NH2 [compound 51]		971	
CC[C@H](C)[C@H](NC(=O)[C@H](CC(C)C)NC(=O)[C@H](Cc1c[nH]c2ccccc12)NC(=O)[C@H](CCC(=O)O)NC(=O)[C@@H](NC(=O)[C@H](Cc1ccccc1)NC(=O)[C@H](CCC(=O)O)NC(=O)[C@H](CCCCN)NC(=O)[C@H](C)NC(=O)[C@H](C)NC(=O)[C@H](CCCCN)NC(=O)[C@H](CCC(=O)O)NC(=O)[C@H](CCC(=O)O)NC(=O)[C@H](CC(C)C)NC(=O)[C@H](Cc1ccc(O)cc1)NC(=O)[C@H](CCC(=O)O)NC(=O)[C@@H](NC(=O)[C@@H](NC(=O)[C@H](CC(=O)O)NC(=O)[C@H](CC(N)=O)NC(=O)[C@@H](NC(=O)[C@H](Cc1ccc(O)cc1)NC(=O)[C@@H](NC(=O)CNC(=O)[C@H](CCC(=O)O)NC(=O)[C@H](C)NC(=O)[C@@H](N)Cc1c[nH]cn1)[C@@H](C)O)[C@@H](C)O)C(C)C)[C@@H](C)O)[C@@H](C)CC)C(=O)N[C@@H](CCCCN)C(=O)NCC(=O)N[C@@H](CCCCN)C(=O)N1CCC[C@H]1C(=O)N[C@@H](CCCCN)C(=O)N[C@@H](CCCCN)C(=O)N[C@H](C(=O)N[C@@H](CCCNC(=N)N)C(=O)N[C@@H](Cc1ccc(O)cc1)C(=O)N[C@@H](CO)C(N)=O)[C@@H](C)CC [compound 2]	0.1	0.36	
HAEGTFTSDVTQQLDEKAAKEFIDWLINGGASKEIIS-NH2 (C-terminus assumed) [compound 12]		0.29	
HAEGTFTNDMTNYLEEKAAKEFVGWLIKGRS-NH2 (C-terminus assumed) [compound 6]	1	1.23	
HAEGTYTNDVTEYLEEKAAKFIEWLIKGKPKKIRYS-NH2 (C-terminus assumed) [compound 31]	19		
HAEGTYTNDVTEYLEEKAAKEFIEWLIGKPKKIRYS-NH2 (C-terminus assumed) [compound 35]	0.28		
HAEGTFTSDVTQQLEEKAAKEFIEWLIKGKPKKIRYS-NH2 (C-terminus assumed) [compound 22]		0.1	
HAEGTYTNDVTEYLEEKAAKEFIEWLIKGPKKIRYS-NH2 (C-terminus assumed) [compound 36]	0.36		
HAEGTFTSDVTQQLDEKAAKEFIDWLINPGSEGIKSI-NH2 (C-terminus assumed) [compound 14]	18	18	
HAEGTYTNDVTEYLEEKAAKEFIEWLINGGPSKEIIS-NH2 (C-terminus assumed) [compound 21]		1	
HADGTYTSDVSSYLQDQAAKDFITWLKSGQPKPDAVET-NH2 [compound 48]	34	14	
HAEGTFTSDVTQQLDEKAAKEFIDWLINGGPSSGAPPPS-NH2 (C-terminus assumed) [compound 9]		0.28	
HAEGTYTNDVTEYLEEKAAKEFIEWLIK-NH2 (C-terminus assumed) [compound 25]		0.53	
HAEGTYTNDVTEYLEEKAAKEFIEWLIN-NH2 (C-terminus assumed) [compound 24]		0.85	
HAEGTYTNDVTEYLEEKAAKEFIEWLIKGKPKKIRY (also called nmGLP-1 analog) [SEQ ID NO 34]			GLP-1 cAMP (6-23) EC50 [3]: 0.095 nM; IC50 [4]: 15 nM
